Here are results for six cell lines from the supplement of paper PMC10307832.

Experiment in all cases: relative viability (nuclei count vs DMSO), 5 days (fraction); higher = more cells survive
Compound in the test “Motesanib + Palbociclib”: CC1(C)CNc2cc(NC(=O)c3cccnc3NCc3ccncc3)ccc21 [Motesanib] + CC(=O)c1c(C)c2cnc(Nc3ccc(N4CCNCC4)cn3)nc2n(C2CCCC2)c1=O [Palbociclib] (partner 0.5 µM)
Summed up: (§1)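 Cells from lung cancer lines were seeded into 1536-well plates and, one day later, dosed by pin tool. Treatments were either a single drug or a fixed dose of an anchor drug with five library-drug doses (not always all listed) in √10 steps. After 5 days, nuclei were stained in a one-step fixation (final 0.05% Triton X-100, 1% formaldehyde, 1 ug/ml Hoechst) and counted on 4× images, and relative viability is the treated-to-vehicle nuclei ratio, as the median of duplicate plates.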

Compound in the test “Motesanib + Trametinib”: CC1(C)CNc2cc(NC(=O)c3cccnc3NCc3ccncc3)ccc21 [Motesanib] + CC(=O)Nc1cccc(-n2c(=O)n(C3CC3)c(=O)c3c(Nc4ccc(I)cc4F)n(C)c(=O)c(C)c32)c1 [Trametinib] (partner 0.02 µM)
The method, boiled down:
as §1

Compound in the test “Motesanib + Linsitinib”: CC1(C)CNc2cc(NC(=O)c3cccnc3NCc3ccncc3)ccc21 [Motesanib] + C[C@]1(O)C[C@@H](c2nc(-c3ccc4ccc(-c5ccccc5)nc4c3)c3c(N)nccn32)C1 [Linsitinib] (partner 1 µM)
Summed up:
as §1

Compound in the test “Motesanib + Navitoclax”: CC1(C)CNc2cc(NC(=O)c3cccnc3NCc3ccncc3)ccc21 [Motesanib] + CC1(C)CCC(c2ccc(Cl)cc2)=C(CN2CCN(c3ccc(C(=O)NS(=O)(=O)c4ccc(N[C@H](CCN5CCOCC5)CSc5ccccc5)c(S(=O)(=O)C(F)(F)F)c4)cc3)CC2)C1 [Navitoclax] (partner 0.5 µM)
The method, boiled down:
as §1

Turning to NCI-H1666, the relative viability with Motesanib + Palbociclib (first compound 0.01 µM) was determined as 0.649; in the test with Motesanib + Palbociclib (first compound 0.03162 µM) it was 0.577; with Motesanib + Palbociclib (first compound 0.1 µM), 0.679; with Motesanib + Palbociclib (first compound 0.3162 µM), 0.751; with Motesanib + Palbociclib (first compound 1 µM), 0.63; with Motesanib + Trametinib (first compound 0.01 µM), 0.736. Moreover, the relative viability with Motesanib + Trametinib (first compound 0.03162 µM) came to 0.904; with Motesanib + Trametinib (first compound 0.1 µM), 0.905; in the test with Motesanib + Trametinib (first compound 0.3162 µM), 0.858; in the test with Motesanib + Trametinib (first compound 1 µM), 0.838; in the test with Motesanib + Linsitinib (first compound 0.01 µM), 0.966; in the test with Motesanib + Linsitinib (first compound 0.03162 µM), 0.83. Also, the relative viability with Motesanib + Linsitinib (first compound 0.1 µM) turned out to be 0.786; in the test with Motesanib + Linsitinib (first compound 0.3162 µM), 0.788; with Motesanib + Linsitinib (first compound 1 µM), 0.753; with Motesanib + Navitoclax (first compound 0.01 µM), 0.947; with Motesanib + Navitoclax (first compound 0.03162 µM), 0.979; with Motesanib + Navitoclax (first compound 0.1 µM) it was 0.99. The results for the relative viability with Motesanib + Navitoclax (first compound 0.3162 µM) and with Motesanib + Navitoclax (first compound 1 µM) were 1.05 and 0.88, respectively.
Take NCI-H1734: the relative viability with Motesanib + Palbociclib (first compound 0.01 µM) stood at 0.359; with Motesanib + Palbociclib (first compound 0.03162 µM), 0.349; with Motesanib + Palbociclib (first compound 0.1 µM) it was 0.387; with Motesanib + Palbociclib (first compound 0.3162 µM) it was 0.348; with Motesanib + Palbociclib (first compound 1 µM), 0.324; with Motesanib + Trametinib (first compound 0.01 µM), 0.6. In addition, the relative viability with Motesanib + Trametinib (first compound 0.03162 µM) is 0.625; in the test with Motesanib + Trametinib (first compound 0.1 µM), 0.644; with Motesanib + Trametinib (first compound 0.3162 µM) it was 0.676; in the test with Motesanib + Trametinib (first compound 1 µM), 0.723; with Motesanib + Linsitinib (first compound 0.01 µM), 0.843; with Motesanib + Linsitinib (first compound 0.03162 µM) it was 0.951. Besides, the relative viability amounted to 0.897 with Motesanib + Linsitinib (first compound 0.1 µM); 0.976 with Motesanib + Linsitinib (first compound 0.3162 µM); 1.01 with Motesanib + Linsitinib (first compound 1 µM); 0.861 with Motesanib + Navitoclax (first compound 0.01 µM); 0.915 with Motesanib + Navitoclax (first compound 0.03162 µM); 0.796 in the test with Motesanib + Navitoclax (first compound 0.1 µM). The relative viability is 0.959 with Motesanib + Navitoclax (first compound 0.3162 µM) and 0.938 with Motesanib + Navitoclax (first compound 1 µM).
As to NCI-H1755, the relative viability with Motesanib + Palbociclib (first compound 0.01 µM) is 0.459; with Motesanib + Palbociclib (first compound 0.03162 µM) it was 0.46; with Motesanib + Palbociclib (first compound 0.1 µM) it was 0.487; in the test with Motesanib + Palbociclib (first compound 0.3162 µM) it was 0.477; in the test with Motesanib + Palbociclib (first compound 1 µM), 0.48; with Motesanib + Trametinib (first compound 0.01 µM), 0.782. Besides, the relative viability was found to be 0.765 in the test with Motesanib + Trametinib (first compound 0.03162 µM); 0.799 in the test with Motesanib + Trametinib (first compound 0.1 µM); 0.85 with Motesanib + Trametinib (first compound 0.3162 µM); 0.831 with Motesanib + Trametinib (first compound 1 µM); 1.02 with Motesanib + Linsitinib (first compound 0.01 µM); 0.999 with Motesanib + Linsitinib (first compound 0.03162 µM). Also, the relative viability in the test with Motesanib + Linsitinib (first compound 0.1 µM) stood at 1.03; in the test with Motesanib + Linsitinib (first compound 0.3162 µM), 1.02; with Motesanib + Linsitinib (first compound 1 µM) it was 1.02; with Motesanib + Navitoclax (first compound 0.01 µM), 0.938; with Motesanib + Navitoclax (first compound 0.03162 µM) it was 0.966; with Motesanib + Navitoclax (first compound 0.1 µM), 1.02. For the same cell line, the relative viability was determined as 0.991 with Motesanib + Navitoclax (first compound 0.3162 µM) and 1 with Motesanib + Navitoclax (first compound 1 µM).
Consider NCI-H1792, for which the relative viability with Motesanib + Palbociclib (first compound 0.03162 µM) turned out to be 0.583; with Motesanib + Palbociclib (first compound 0.1 µM), 0.653; with Motesanib + Palbociclib (first compound 0.3162 µM) it was 0.675; with Motesanib + Palbociclib (first compound 1 µM), 0.667; with Motesanib + Trametinib (first compound 0.01 µM), 0.511; with Motesanib + Trametinib (first compound 0.03162 µM), 0.37. In addition, the relative viability came out at 0.43 in the test with Motesanib + Trametinib (first compound 0.1 µM); 0.528 in the test with Motesanib + Trametinib (first compound 0.3162 µM); 0.442 with Motesanib + Trametinib (first compound 1 µM); 0.569 in the test with Motesanib + Linsitinib (first compound 0.01 µM); 0.492 with Motesanib + Linsitinib (first compound 0.03162 µM); 0.625 with Motesanib + Linsitinib (first compound 0.1 µM). The relative viability with Motesanib + Linsitinib (first compound 0.3162 µM) stood at 0.561; with Motesanib + Linsitinib (first compound 1 µM), 0.492; with Motesanib + Navitoclax (first compound 0.01 µM), 0.612; with Motesanib + Navitoclax (first compound 0.03162 µM), 0.605; with Motesanib + Navitoclax (first compound 0.1 µM), 0.584; with Motesanib + Navitoclax (first compound 0.3162 µM) it was 0.578. Moreover, in the test with Motesanib + Navitoclax (first compound 1 µM), the relative viability turned out to be 0.703.
NCI-H1793: the relative viability with Motesanib + Palbociclib (first compound 0.01 µM) was 0.351; with Motesanib + Palbociclib (first compound 0.03162 µM) it was 0.306; in the test with Motesanib + Palbociclib (first compound 0.1 µM) it was 0.335; in the test with Motesanib + Palbociclib (first compound 0.3162 µM) it was 0.277; with Motesanib + Palbociclib (first compound 1 µM), 0.334; in the test with Motesanib + Trametinib (first compound 0.01 µM), 0.375. Moreover, the relative viability in the test with Motesanib + Trametinib (first compound 0.03162 µM) was 0.362; with Motesanib + Trametinib (first compound 0.1 µM) it was 0.513; with Motesanib + Trametinib (first compound 0.3162 µM) it was 0.409; in the test with Motesanib + Trametinib (first compound 1 µM) it was 0.523; with Motesanib + Linsitinib (first compound 0.01 µM), 0.877; with Motesanib + Linsitinib (first compound 0.03162 µM) it was 0.802. Moreover, the relative viability in the test with Motesanib + Linsitinib (first compound 0.1 µM) worked out at 0.796; with Motesanib + Linsitinib (first compound 0.3162 µM), 0.793; with Motesanib + Linsitinib (first compound 1 µM), 0.76; with Motesanib + Navitoclax (first compound 0.01 µM), 0.594; in the test with Motesanib + Navitoclax (first compound 0.03162 µM), 0.445; in the test with Motesanib + Navitoclax (first compound 0.1 µM), 0.41. For the same cell line, the relative viability with Motesanib + Navitoclax (first compound 0.3162 µM) was 0.583; with Motesanib + Navitoclax (first compound 1 µM), 0.33.
As to NCI-H1915, the relative viability in the test with Motesanib + Palbociclib (first compound 0.01 µM) was 0.541; in the test with Motesanib + Palbociclib (first compound 0.03162 µM), 0.522; with Motesanib + Palbociclib (first compound 0.1 µM), 0.545; with Motesanib + Palbociclib (first compound 0.3162 µM), 0.508; in the test with Motesanib + Palbociclib (first compound 1 µM) it was 0.575; in the test with Motesanib + Trametinib (first compound 0.01 µM), 0.209. Also, the relative viability with Motesanib + Trametinib (first compound 0.03162 µM) is 0.338; with Motesanib + Trametinib (first compound 0.1 µM), 0.318; in the test with Motesanib + Trametinib (first compound 0.3162 µM), 0.288; in the test with Motesanib + Trametinib (first compound 1 µM), 0.365; with Motesanib + Linsitinib (first compound 0.01 µM), 1.09; with Motesanib + Linsitinib (first compound 0.03162 µM), 1.19. In addition, the relative viability with Motesanib + Linsitinib (first compound 0.1 µM) was determined as 1.11; in the test with Motesanib + Linsitinib (first compound 0.3162 µM), 1.16; with Motesanib + Linsitinib (first compound 1 µM) it was 1.08; with Motesanib + Navitoclax (first compound 0.01 µM), 0.782; with Motesanib + Navitoclax (first compound 0.03162 µM), 0.747; with Motesanib + Navitoclax (first compound 0.1 µM), 0.824. In addition, the relative viability was 0.794 in the test with Motesanib + Navitoclax (first compound 0.3162 µM) and 0.784 with Motesanib + Navitoclax (first compound 1 µM).
